From paper PMC7083800, “Production and characterization of Aspergillus niger GH29 family α-fucosidase and production of a novel non-reducing 1-fucosyllactose” (Glycoconjugate Journal, 2019)

Test system: T1, A. niger GH29 α-fucosidase (long version, pPFucA-L)
T1 construct: gene FucA; C-terminal His-tag kept; codon-optimized, secreted from Pichia pastoris
Assay: pNP release, absorbance at […] nm
Type: biochemical, Aspergillus niger
Settings: 50 mM Na-acetate buffer assay, pH 3.6, 45 °C; 0.05-3 mM substrate; read-out: apparent Km

- Km: 390 µM
SMILES: C[C@@H]1O[C@@H](Oc2ccc([N+](=O)[O-])cc2)[C@@H](O)[C@H](O)[C@@H]1O [pNP-fucose, 4-Nitrophenyl α-L-fucopyranoside]
